For 15 compounds, TGI and GI50 results are on record in PubChem BioAssay (NCI).

Holding throughout (assay): inhibition of tumour cell growth, NCI panel, 48 h
Test [1] concerns SK-MEL-28 melanoma.
The subject of test [2] is OVCAR-3 ovarian.
Test [3] relates to SK-OV-3 ovarian.
Test [4] relates to U251 CNS.
Test [5] concerns HCT-116 colon.
Test [6] concerns A549 NSCLC.
Test [7] deals with MALME-3M melanoma.
Test [8] concerns K-562 leukemia.
The subject of test [9] is HT29 colon.

Each structure is given as a SMILES string.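 Grown in 96-well plates, cells were treated for 48 hours with each compound at five concentrations. Insufficient inhibition: endpoint recorded as highest concentration tested. GI50 is the concentration that inhibits growth by half. The concentration for full growth arrest is given as TGI.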 Some results are limits rather than exact numbers.

Regarding `Cc1cc2c(C)nn(Cc3ccccc3)c2c(C(=O)O)c1C`, the TGI in [1], in test [2], in [3], in test [4], in [5] and in test [6] was above 100 µM throughout. Further, the TGI in test [7] was above 100 µM.

For the compound `CC(=O)OCc1c2ccccc2c(C)c2c1cc(F)c1ccccc12`, the TGI in test [1] is above 100 µM; in [8], 78.9 µM; in [2], 57.5 µM; in test [3], above 100 µM; in test [9] it was 42.4 µM; in [4], 58.8 µM. Besides, the TGI in [5], in test [6] and in [7] was above 100 µM each time.

Consider `O=C(O)CCNS(=O)(=O)c1ccc(NC(=O)c2ccccc2)cc1`, for which the TGI in test [1], in test [8], in [2], in test [3], in test [9] and in test [4] was above 100 µM throughout. In addition, the TGI in test [6] and in [7] was above 100 µM each time.

`Cn1ccnc1CCc1c(Cl)cccc1Cl`: the TGI in [1], in [8], in test [2], in [3], in test [9] and in test [4] was above 100 µM throughout. In addition, the TGI in [5], in [6] and in test [7] was above 100 µM each time.

As to `CCOC(=O)Cc1nc2ccc3c(c2[nH]c1=O)C(=O)c1ccccc1C3=O`, the TGI in [1], in test [8], in [2], in test [3], in test [9] and in [4] was above 100 µM throughout. The TGI in [5], in test [6] and in [7] was above 100 µM throughout.

In the case of `COC(=O)C1=CO[C@@H](OC2CC(CO)C(O)C(O)C2O)[C@@H]2[C@@H](C)[C@@H](OC(=O)/C=C/c3ccccc3)[C@@H](O)[C@H]12` (stereo not given in full) (tested in a mixture with another compound), the TGI in [1], in test [8], in [2], in test [3], in test [9] and in test [4] was above 100 µM throughout. The TGI in test [5], in [6] and in [7] was above 100 µM throughout.

Consider `O=C(/C=C/c1ccccc1)Oc1cccc2cccnc12`, for which the TGI in test [1] is above 86.3 µM; in test [8], above 100 µM; in [2], 24.6 µM; in [3], above 100 µM; in test [9], 29.3 µM; in test [4], 30.8 µM. The TGI stood at 10.9 µM in test [5], 76.9 µM in test [6] and 11.4 µM in test [7].

As to `C[N+](C)(C)CCC(=O)CC[N+](C)(C)C`, the TGI in [1] is 50.1 µM; in test [8] it was 24.3 µM; in test [2], 33.9 µM; in [3], above 100 µM; in [9] it was 31.6 µM; in [4], above 100 µM. Also, the TGI in test [5] was 33.7 µM; in test [6] it was above 100 µM; in test [7], 47.6 µM.

As to `CCc1c(C#N)c(=O)[nH]c(=O)n1CCN1CCN(C(=O)NCCCCCCNC(=O)N2CCN(CCn3c(CC)c(C#N)c(=O)[nH]c3=O)CC2)CC1`, the TGI in [8], in test [2], in [3], in [9], in test [4] and in test [5] was above 100 µM in each case. In addition, the TGI in test [6] was above 100 µM.

As for `CC[O-].CC[O-].O=C([CH-]C(=O)c1ccccc1)CCCCCCCCC(=O)[CH-]C(=O)c1ccccc1.[Ti+4]`, the GI50 in [1] is above 100 µM; in [8] it was above 100 µM; in [2], 0.756 µM; in test [3], above 100 µM; in [9], above 100 µM; in test [4] it was above 100 µM. Moreover, the GI50 in [6] was above 100 µM; in [7], 73.6 µM. In addition, the TGI in [1], in [8], in test [2], in test [3], in test [9] and in test [4] was above 100 µM in each case. The TGI in test [6] and in [7] was above 100 µM in each case.

In the case of `CC1=C(C(=O)Nc2ccccc2C)C(c2ccc(Cl)cc2)C(C(=O)Nc2ccccc2C)=C(C)N1`, the TGI in test [1], in test [8], in [2], in [3], in test [9] and in [4] was above 100 µM each time. For the same compound, the TGI in test [5], in test [6] and in test [7] was above 100 µM throughout.

Consider `C/C=C/C(C#N)O[Si](C)(C)C` (stereo not given), for which the TGI in [1], in test [2], in test [3], in test [9], in [4] and in test [5] was above 100 µM in each case. In addition, the TGI in test [6] and in [7] was above 100 µM in each case.

`COC(=O)c1sc(C(=O)OC)c2c1CS(=O)C2`: the TGI in [1], in [8], in test [2], in [3], in test [9] and in test [4] was above 100 µM throughout. Besides, the TGI in test [5], in test [6] and in [7] was above 100 µM throughout.

For the compound `C=C(c1ccccc1)C1(O)CCCCC1N` (stereo not given), the TGI in test [1], in test [8], in [2], in test [3], in [9] and in [4] was above 100 µM each time. The TGI in test [5], in [6] and in test [7] was above 100 µM throughout.

For the compound `O=C1C=CC(=O)c2c1ccc1c3ccccc3n(Cc3ccc([N+](=O)[O-])cc3)c21`, the TGI in test [1] was above 100 µM; in test [8] it was 48.8 µM; in [2], above 100 µM; in [3] it was above 100 µM; in test [9], above 100 µM; in [4], above 100 µM. Also, the TGI in [5] and in test [6] was above 100 µM in each case.
